Data reported in patent US8658686B2, “Pyrazole compounds having therapeutic effect on multiple myeloma” (Nissan Chemical Industries, Ltd., priority 2010, dated 2014).
Values after ≈ are worked out from the molar mass of the structure shown. Where two headings read alike, the source gives them in different places.

How the values were obtained:
RPMI8226 cells = assay: Cell proliferation assay (WST assay, Cell Counting Kit-8), myeloma cell strain RPMI8226; type: cell-based; conditions: 4 days of incubation, concentration yielding 50% inhibition of cell proliferation
Protocol: The CO2 concentration (%) in a CO2 incubator is expressed by the ratio of CO2 in the atmosphere in vol %.
Myeloma cell strain RPMI8226 (DS Pharma Biomedical Co., Ltd.) was incubated in liquid culture in a CO2 incubator (5% CO2) in RPMI1640 medium containing 10% (v/v) fetal calf serum. The resulting cells were suspended in RPMI640 medium(GIBCO) containing 10% (v/v) fetal calf serum and plated in 96-well flat-bottomed microplates (Corning Incorporated) in 100 μl/mL ([…]) per well. Furtheremore, each of the compounds prepared in Synthetic Examples was dissolved in dimethylsulfoxide and added at 0.1% (v/v) to final concentrations of 0.1 to 10 μg/mL. As the negative control, dimethyl sulfoxide was added at 0.1% (v/v).
After 4 days of incubation at 37° C. in liquid culture in a CO2 incubator (5% CO2), the viable cells were counted by the WST assay. A 10-μl aliquot of Cell Counting Kit-8 reagent solution (Dojindo Molecular Technologies, Inc.) was added to each well and incubated in a CO2 incubator (5% CO2) for 4 hours for color reaction, and light absorbance was measured at 450 nm by using a microplate reader. As the cell growth inhibitory activities in the presence of the test compounds relative to that in the absence of them (negative control), the concentrations (IC50) yielding 50% inhibition of cell proliferation were calculated.

[1] = Homo sapiens, RPMI-8226, 96 h, read-out: IC50

| Structure (SMILES) | IC50 (RPMI8226 cells) | IC50 (RPMI8226 cells; [1]) | melting point |
| --- | --- | --- | --- |
| CCCCCCc1ccc(-c2c(C(C)C)nn(C(C)(C)Cc3ccc(C)cc3)c2O)cc1 [Compound No. 3-07, 4-(4-hexylphenyl)-3-isopropyl-1-(2-methyl-1-p-tolylpropan-2-yl)-1H-pyrazol-5-ol] | 5.3 µg/mL (≈ 12.3 µM) | 8.8 µg/mL (≈ 20.3 µM) | – |
| CC(C)C1=NN(C(C)(C)Cc2ccc(Br)cc2)C(=O)C1 [Compound No. 3-12, 1-(1-(4-bromophenyl)-2-methylpropan-2-yl)-3-isopropyl-1H-pyrazol-5(4H)-one] | – | 5.4 µg/mL (≈ 16 µM) | – |
| COc1cc(-c2ccccc2)nn1C(C)(C)c1ccccc1 [Compound No. 3-13, 5-methoxy-3-phenyl-1-(2-phenylpropan-2-yl)-1H-pyrazole] | – | 5.4 µg/mL (≈ 18.5 µM) | – |
| COc1c(C)c(-c2ccccc2)nn1C(C)(C)c1ccccc1 [Compound No. 3-14, 5-methoxy-4-methyl-3-phenyl-1-(2-phenylpropan-2-yl)-1H-pyrazole] | – | 7.9 µg/mL (≈ 25.8 µM) | – |
| CC(C)(Cc1ccccc1)N1N=C(c2ccccc2)CC1=O [Compound No. 3-16, 1-(2-methyl-1-phenylpropan-2-yl)-3-phenyl-1H-pyrazol-5(4H)-one] | – | 3.5 µg/mL (≈ 12 µM) | – |
| CC(C)C1=NN(C(C)(C)Cc2ccccc2)C(=O)C1Br (stereo not shown) [Compound No. 3-47, 4-bromo-3-isopropyl-1-(2-methyl-1-phenylpropan-2-yl)-1H-pyrazol-5(4H)-one] | – | 3.3 µg/mL (≈ 9.78 µM) | – |
| COC(=O)CC1=NN(C(C)(C)c2ccccc2)C(=O)C1 [Compound No. 4-01, methyl 2-(5-oxo-1-(2-phenylpropan-2-yl)-4,5-dihydro-1H-pyrazol-3-yl)acetate] | – | 11.1 µg/mL (≈ 40.5 µM) | – |
| COC(=O)c1ccc(-c2c(C(C)C)nn(C(C)(C)Cc3ccccc3)c2O)cc1 [Compound No. 4-23, methyl 4-(5-hydroxy-3-isopropyl-1-(2-methyl-1-phenylpropan-2-yl)-1H-pyrazol-4-yl)benzoate] | – | 6.3 µg/mL (≈ 16.1 µM) | – |
| CCOC(=O)c1c(C(C)C)nn(C(C)(C)c2ccccc2)c1O [Compound No. 4-27, ethyl 5-hydroxy-3-isopropyl-1-(2-phenylpropan-2-yl)-1H-pyrazole-4-carboxylate] | – | 5.5 µg/mL (≈ 17.4 µM) | – |
| CC(C)c1nn(C(C)(C)Cc2ccccc2)c(O)c1C(=O)c1ccccc1 [Compound No. 4-71, (5-hydroxy-3-isopropyl-1-(2-methyl-1-phenylpropan-2-yl)-1H-pyrazol-4-yl)(phenyl)methanone] | – | 3.2 µg/mL (≈ 8.83 µM) | – |
| CCCCCCc1ccc(-c2c(C#N)nn(C(C)(C)Cc3ccc(C)cc3)c2O)cc1 [Compound No. 4-86, 4-(4-Hexylphenyl)-5-hydroxy-1-(2-methyl-1-(p-tolyl)propan-2-yl)-1H-pyrazole-3-carbonitrile] | – | 3.3 µg/mL (≈ 7.94 µM) | 140 to 142 °C |
| CON=C(C)c1c(C(C)C)nn(C(C)(C)Cc2ccccc2)c1O [Compound No. 4-89, 1-(5-Hydroxy-3-isopropyl-1-(2-methyl-1-phenylpropan-2-yl)-1H-pyrazol-4-yl)ethanone O-methyl oxime] | – | 4.7 µg/mL (≈ 14.3 µM) | – |
| CCCCCCc1ccc(-c2cnn(C(C)(C)Cc3ccc(C)cc3)c2O)cc1 [Compound No. 4-90, 4-(4-Hexylphenyl)-1-(2-methyl-1-(p-tolyl)propan-2-yl)-1H-pyrazol-5-ol] | – | 5.5 µg/mL (≈ 14.1 µM) | 149 to 151 °C |
